In US4608338A, “Process for bioconversion-product recovery” (Celanese Corporation, priority 1982, dated 1986):

What was measured:
[1] = solubility of muconic acid at pH 1.0 (Example III B, precipitation from regular "NO" medium); assay type: physicochemical
Procedure: To 500 ml of regular "NO" medium are added 15 grams of cis, cis-muconic acid. The pH of the solution is about […]. A 14.2 ml quantity of concentrated NH4 OH solution (15N) is added to adjust the pH to 6.2.
To the neutralized solution is added a 17 ml quantity of concentrated H2 SO4 solution, which lowers the pH of the solution to 0.99. White solids precipitate from the solution, and the solids are filtered, washed and recovered as muconic acid (quantitative recovery; solubility of muconic acid at pH 1.0 is 0.03 wt %).

[2] = solubility of muconic acid in acidified aqueous fermentation medium; assay type: physicochemical; settings: pH of 1-2, 20° C.
Procedure: Under optimal conditions, the muconic acid accumulation limit can approach up to about 50 grams of muconic acid per liter of growth medium. The microbiological oxidation step of the present invention process normally is conducted at ambient temperatures up to about 31° C. The muconic acid at a concentration between about 10-45 grams/liter in the cell-free ammonia-neutralized aqueous fermentation medium is precipitated with sulfuric acid or phosphoric acid. The precipitated muconic acid (solubility at pH of 1-2, about 0.07% at 20° C.) is filtered, washed and dried. In a further embodiment of the present invention, the muconic acid is admixed with a solvent medium such as acetic acid (e.g., to form a 40 weight percent muconic acid/acetic acid slurry solution), and then treated under hydrogenation conditions to yield adipic acid.

solubility [1]: 0.03 wt %
solubility [2]: about 0.07%
SMILES: O=C(O)/C=C\C=C/C(=O)O [muconic acid, cis, cis-muconic acid]
